Assay results: ChEMBL document CHEMBL1125971, “A concise synthesis of 12-(3'-hydroxy-n-propyl)-deoxoartemisinin” (Bioorg Med Chem Lett, 1991)
In brackets after ≈: the same amount, converted by molar mass.

Test system: Plasmodium falciparum
Experiment: In vitro antimalarial activity against Plasmodium falciparum
Assay type: functional, organism-based

SMILES	IC50
C[C@@H]1CCC2[C@@H](C)C(=O)O[C@@H]3O[C@]4(C)CCC1C23OO4 (some centres undefined)	1.21 ng/mL (≈ 4.29 nM)
C[C@@H]1CCC2[C@@H](C)[C@H](CCCO)O[C@@H]3O[C@]4(C)CCC1C23OO4 (some centres undefined)	0.23 ng/mL (≈ 0.705 nM)
C[C@@H]1CCC2[C@@H](C)CO[C@@H]3O[C@]4(C)CCC1C23OO4 (some centres undefined)	0.15 ng/mL (≈ 0.559 nM)
C[C@@H]1CCC2[C@@H](C)CCO[C@@H]3O[C@]4(C)CCC1C23OO4 (some centres undefined)	19 ng/mL (≈ 67.4 nM)
